Source: PMC7918793, “5-Methoxybenzothiophene-2-Carboxamides as Inhibitors of Clk1/4: Optimization of Selectivity and Cellular Potency” (Molecules, 2021)

What was measured:
Experiment in all cases: SelectScreen kinase profiling
Type in all cases: biochemical
CDK5/p25 = CDK5/p25 (Homo sapiens, UniProt Q00535)
Procedure: (§1) Active human Clk1 and Clk2 were purchased from Life Technologies (Catalog No. PV3315 and PV4279, respectively). RS repeat substrate peptide for Clk1 ([…]) was custom synthesized at the Department of Medical Biochemistry and Molecular Biology, Saarland University, Homburg, Germany. Kinase Inhibition assays for Clk1 and Clk2 were performed as described previously, in the presence of 15 μM ATP [20]. The calculated IC50 values are representative of at least two independent determinations performed in duplicates. The larger panel of kinases shown in Table 4 was screened by the SelectScreen Kinase Profiling Service, Thermo Fisher Scientific, Paisley, UK.

CK1 γ2 = CK1 γ2 (Homo sapiens, UniProt P78368)
Procedure: as §1

CK2 α1 = CK2 α1 (Homo sapiens, UniProt P68400)
Procedure: as §1

Clk1 = Clk1 (Homo sapiens, UniProt P49759)
Procedure: as §1

Clk3 = Clk3 (Homo sapiens, UniProt P49761)
Procedure: as §1

DYRK3 = molecular target: T1, DYRK3 (Homo sapiens, UniProt O43781)
T1 sequence (O43781 1-588): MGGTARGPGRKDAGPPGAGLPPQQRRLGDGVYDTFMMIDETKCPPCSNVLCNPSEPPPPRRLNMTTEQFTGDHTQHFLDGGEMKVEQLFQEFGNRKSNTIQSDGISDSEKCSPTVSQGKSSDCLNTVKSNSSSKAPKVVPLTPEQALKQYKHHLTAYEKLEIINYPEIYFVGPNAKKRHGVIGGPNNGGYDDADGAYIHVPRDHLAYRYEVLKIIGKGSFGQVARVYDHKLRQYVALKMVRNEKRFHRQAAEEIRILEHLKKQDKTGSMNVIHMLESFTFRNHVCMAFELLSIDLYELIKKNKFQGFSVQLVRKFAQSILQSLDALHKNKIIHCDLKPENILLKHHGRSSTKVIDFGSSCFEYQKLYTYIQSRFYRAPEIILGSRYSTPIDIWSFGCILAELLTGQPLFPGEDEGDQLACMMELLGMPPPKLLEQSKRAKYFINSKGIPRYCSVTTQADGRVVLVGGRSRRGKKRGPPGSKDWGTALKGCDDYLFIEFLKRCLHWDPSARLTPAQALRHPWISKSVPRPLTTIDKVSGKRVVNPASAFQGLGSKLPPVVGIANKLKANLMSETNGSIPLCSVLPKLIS
Procedure: as §1

MLCK2 = MLCK2 (Homo sapiens, UniProt Q9H1R3)
Procedure: as §1

PIM1 = PIM1 (Homo sapiens, UniProt P11309)
Procedure: as §1

SRPK1 = SRPK1 (Homo sapiens, UniProt Q96SB4)
Procedure: as §1

SRPK2 = SRPK2 (Homo sapiens, UniProt P78362)
Procedure: as §1

STK17A (DRAK1) = molecular target: T2, STK17A (DRAK1) (Homo sapiens, UniProt Q9UEE5)
T2 sequence (Q9UEE5 1-414): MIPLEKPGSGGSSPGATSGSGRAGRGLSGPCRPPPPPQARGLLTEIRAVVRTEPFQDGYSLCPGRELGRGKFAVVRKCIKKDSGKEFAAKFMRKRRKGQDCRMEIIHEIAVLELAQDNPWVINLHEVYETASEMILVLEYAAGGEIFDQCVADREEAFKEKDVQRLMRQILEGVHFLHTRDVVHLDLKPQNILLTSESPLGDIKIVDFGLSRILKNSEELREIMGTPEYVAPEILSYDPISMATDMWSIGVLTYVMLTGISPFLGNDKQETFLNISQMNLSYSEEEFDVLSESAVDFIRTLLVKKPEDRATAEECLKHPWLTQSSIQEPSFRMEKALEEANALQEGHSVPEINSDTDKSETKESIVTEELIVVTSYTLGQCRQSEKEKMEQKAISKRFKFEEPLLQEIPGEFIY
Procedure: as §1

PIM1, sequence (P11309 whole entry): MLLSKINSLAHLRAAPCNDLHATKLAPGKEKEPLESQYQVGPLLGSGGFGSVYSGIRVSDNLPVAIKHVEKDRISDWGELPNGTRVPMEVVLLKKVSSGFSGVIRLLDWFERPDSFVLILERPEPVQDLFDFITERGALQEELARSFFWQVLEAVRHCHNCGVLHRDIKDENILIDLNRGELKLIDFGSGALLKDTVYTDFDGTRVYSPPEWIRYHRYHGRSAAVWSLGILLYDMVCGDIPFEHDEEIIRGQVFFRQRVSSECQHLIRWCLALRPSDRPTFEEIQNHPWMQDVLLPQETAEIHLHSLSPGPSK
Clk3, sequence (P49761 whole entry): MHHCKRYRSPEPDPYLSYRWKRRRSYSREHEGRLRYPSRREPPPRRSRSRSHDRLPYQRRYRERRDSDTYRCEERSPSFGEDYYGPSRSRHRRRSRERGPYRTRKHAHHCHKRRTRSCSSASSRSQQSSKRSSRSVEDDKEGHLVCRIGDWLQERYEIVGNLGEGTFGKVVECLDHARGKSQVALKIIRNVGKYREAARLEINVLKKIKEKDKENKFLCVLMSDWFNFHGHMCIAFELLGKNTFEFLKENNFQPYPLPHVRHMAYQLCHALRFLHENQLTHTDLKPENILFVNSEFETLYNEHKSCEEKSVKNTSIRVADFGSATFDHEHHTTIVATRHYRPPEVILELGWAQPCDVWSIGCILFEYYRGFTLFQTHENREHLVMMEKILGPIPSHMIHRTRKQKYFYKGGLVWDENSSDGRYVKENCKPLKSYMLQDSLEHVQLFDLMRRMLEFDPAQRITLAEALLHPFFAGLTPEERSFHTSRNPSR
CK2 α1, sequence (P68400 whole entry): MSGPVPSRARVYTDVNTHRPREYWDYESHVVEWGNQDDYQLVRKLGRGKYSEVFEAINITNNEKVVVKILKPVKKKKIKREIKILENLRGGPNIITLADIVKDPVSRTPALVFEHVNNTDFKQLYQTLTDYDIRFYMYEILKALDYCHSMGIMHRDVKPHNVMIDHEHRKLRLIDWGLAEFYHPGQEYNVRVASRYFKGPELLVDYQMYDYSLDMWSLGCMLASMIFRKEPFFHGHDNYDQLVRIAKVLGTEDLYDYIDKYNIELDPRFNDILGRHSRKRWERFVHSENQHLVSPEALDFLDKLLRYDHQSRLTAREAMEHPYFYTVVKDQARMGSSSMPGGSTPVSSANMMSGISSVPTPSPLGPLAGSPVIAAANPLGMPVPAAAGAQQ
SRPK1, sequence (Q96SB4 whole entry): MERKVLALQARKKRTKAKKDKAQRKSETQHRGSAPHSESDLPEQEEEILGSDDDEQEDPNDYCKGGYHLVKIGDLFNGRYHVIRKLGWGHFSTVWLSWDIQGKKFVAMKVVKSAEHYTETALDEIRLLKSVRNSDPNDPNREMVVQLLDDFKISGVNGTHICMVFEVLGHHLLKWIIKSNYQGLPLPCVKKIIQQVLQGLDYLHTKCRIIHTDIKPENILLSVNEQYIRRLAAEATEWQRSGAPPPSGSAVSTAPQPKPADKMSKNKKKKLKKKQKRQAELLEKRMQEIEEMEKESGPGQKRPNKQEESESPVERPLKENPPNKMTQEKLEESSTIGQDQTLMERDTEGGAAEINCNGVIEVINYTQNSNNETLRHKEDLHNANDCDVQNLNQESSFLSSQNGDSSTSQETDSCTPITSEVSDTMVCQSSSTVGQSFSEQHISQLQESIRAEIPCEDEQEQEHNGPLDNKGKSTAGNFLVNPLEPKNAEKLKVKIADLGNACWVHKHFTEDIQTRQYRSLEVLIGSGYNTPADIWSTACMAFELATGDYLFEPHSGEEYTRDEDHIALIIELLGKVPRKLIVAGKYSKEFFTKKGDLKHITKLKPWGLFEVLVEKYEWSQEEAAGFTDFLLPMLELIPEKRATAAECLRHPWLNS
CK1 γ2, sequence (P78368 whole entry): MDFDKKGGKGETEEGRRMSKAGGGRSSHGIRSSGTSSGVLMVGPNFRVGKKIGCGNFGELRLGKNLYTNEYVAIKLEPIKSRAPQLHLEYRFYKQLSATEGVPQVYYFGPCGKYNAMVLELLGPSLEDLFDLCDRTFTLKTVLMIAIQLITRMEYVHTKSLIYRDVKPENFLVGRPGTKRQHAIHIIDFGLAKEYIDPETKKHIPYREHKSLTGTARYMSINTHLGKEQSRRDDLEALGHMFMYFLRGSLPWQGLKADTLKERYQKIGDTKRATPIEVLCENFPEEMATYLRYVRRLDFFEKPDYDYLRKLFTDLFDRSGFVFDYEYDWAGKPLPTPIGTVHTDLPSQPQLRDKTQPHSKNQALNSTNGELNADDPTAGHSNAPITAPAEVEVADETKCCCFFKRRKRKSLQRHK
Clk1, sequence (P49759 whole entry): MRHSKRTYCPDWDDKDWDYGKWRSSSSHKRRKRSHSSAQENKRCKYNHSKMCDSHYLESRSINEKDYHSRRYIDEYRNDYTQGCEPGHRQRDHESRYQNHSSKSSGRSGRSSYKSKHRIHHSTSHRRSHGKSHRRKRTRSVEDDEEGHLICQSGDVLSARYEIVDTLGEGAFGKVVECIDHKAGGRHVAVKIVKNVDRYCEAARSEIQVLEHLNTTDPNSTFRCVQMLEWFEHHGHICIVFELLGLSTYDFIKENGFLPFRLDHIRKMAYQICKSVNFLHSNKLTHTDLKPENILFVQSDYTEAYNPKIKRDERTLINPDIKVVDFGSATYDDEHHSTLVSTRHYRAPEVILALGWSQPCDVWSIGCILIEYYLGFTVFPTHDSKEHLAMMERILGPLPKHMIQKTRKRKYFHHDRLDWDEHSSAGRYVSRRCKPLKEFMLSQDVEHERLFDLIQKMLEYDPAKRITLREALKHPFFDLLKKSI
CDK5/p25, sequence (Q00535 whole entry): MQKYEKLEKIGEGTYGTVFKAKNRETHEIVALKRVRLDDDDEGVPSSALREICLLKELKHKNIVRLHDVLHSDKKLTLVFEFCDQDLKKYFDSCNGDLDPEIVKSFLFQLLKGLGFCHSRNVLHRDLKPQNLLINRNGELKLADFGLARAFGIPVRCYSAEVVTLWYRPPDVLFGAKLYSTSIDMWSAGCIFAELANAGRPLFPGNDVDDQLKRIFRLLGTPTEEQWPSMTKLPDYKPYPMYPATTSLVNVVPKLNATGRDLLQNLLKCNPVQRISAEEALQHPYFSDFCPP
CDK5/p25, sequence (Q15078 99-307 partner limits assumed): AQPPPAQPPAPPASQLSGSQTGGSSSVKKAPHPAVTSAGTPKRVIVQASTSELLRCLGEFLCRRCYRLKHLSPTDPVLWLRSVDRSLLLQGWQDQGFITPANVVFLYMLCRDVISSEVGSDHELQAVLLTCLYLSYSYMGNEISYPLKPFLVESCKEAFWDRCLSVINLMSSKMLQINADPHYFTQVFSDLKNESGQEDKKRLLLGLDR
SRPK2, sequence (P78362 whole entry): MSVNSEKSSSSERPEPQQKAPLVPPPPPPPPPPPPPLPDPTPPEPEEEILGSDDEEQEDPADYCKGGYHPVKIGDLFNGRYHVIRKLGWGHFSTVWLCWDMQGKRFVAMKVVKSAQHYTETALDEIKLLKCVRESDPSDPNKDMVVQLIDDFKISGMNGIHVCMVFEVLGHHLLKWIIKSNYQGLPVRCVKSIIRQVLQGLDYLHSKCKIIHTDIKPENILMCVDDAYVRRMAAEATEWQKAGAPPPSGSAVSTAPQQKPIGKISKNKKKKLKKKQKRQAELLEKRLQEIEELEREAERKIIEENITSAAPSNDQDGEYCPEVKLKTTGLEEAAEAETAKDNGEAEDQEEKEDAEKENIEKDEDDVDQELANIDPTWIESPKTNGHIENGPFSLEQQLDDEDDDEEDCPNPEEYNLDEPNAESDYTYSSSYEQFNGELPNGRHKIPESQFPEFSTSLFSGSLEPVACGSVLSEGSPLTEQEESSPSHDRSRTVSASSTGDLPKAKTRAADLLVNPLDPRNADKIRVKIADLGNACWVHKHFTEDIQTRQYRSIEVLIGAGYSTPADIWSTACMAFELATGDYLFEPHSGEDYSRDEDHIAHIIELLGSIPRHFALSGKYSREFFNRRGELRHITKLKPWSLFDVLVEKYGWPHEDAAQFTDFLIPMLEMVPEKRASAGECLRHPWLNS

inhibition at 1 µM (CDK5/p25): 3%
inhibition at 1 µM (CK1 γ2): 2%
inhibition at 1 µM (CK2 α1): 5%
inhibition at 1 µM (Clk1): 80%
inhibition at 1 µM (Clk3): 48%
inhibition at 1 µM (DYRK3): 3%
inhibition at 1 µM (MLCK2): 3%
inhibition at 1 µM (PIM1): 6%
inhibition at 1 µM (SRPK1): 4%
inhibition at 1 µM (SRPK2): 3%
inhibition at 1 µM (STK17A (DRAK1)): 25%
Structure (SMILES): COc1ccc2sc(C(=O)N(C)Cc3cc(F)cc(F)c3)cc2c1 [Compound 10b, N-Methyl-N-(3,5-difluorobenzyl)-5-methoxybenzothiophene-2-carboxamide]
